# According to patent US11464228B2 (priority 2020, dated 2022):
# Entries after “also recorded” stand apart in the source; their conditions may differ.
# Tests used:
# Microcystis aeruginosa [1] = test: Comparison of algaecides, inhibition rate from chlorophyll a content; assay type: cell-based; conditions: incubated 3 days; 15 mg/L
# Excerpt: (§1) Unless otherwise specified, the Microcystis aeruginosa species used in the following examples is the high-toxin-producing strain FACHB-905.
# The measurement of chlorophyll a refers to the method in the literature (“Potent removal of cyanobacteria with controlled release of toxic secondary metabolites by a titanium xerogel coagulant”, Water Res. 2018, 128, 341-349). Specifically, collected algae culture is filtered with a 0.7 μm GF/F glass filter membrane (Whatman). The collected cells are frozen overnight in a refrigerator at −4° C. Then 90% acetone is added for overnight extraction. The extract is centrifuged in a high-speed refrigerated centrifuge (Tianuoda, CT14RD) at 10,000 rpm and 4° C. for 10 min to collect the supernatant, and the absorbance is detected at 630 nm, 663 nm, 645 nm and 750 nm. The formula for calculating the content of chlorophyll a is as follows:
# [formula] wherein A663, A750, A645 and A750 are the absorbance of the supernatant at 663 nm, 750 nm, 645 nm and 750 nm, respectively. Ve is the volume of an extracted solution, Vs is the volume of a filtered solution, and δ is the optical path of a cuvette. The calculation formula for the inhibition rate of an algaecide on Microcystis aeruginosa is as follows: […]
# 300 mL of BG-11 medium was added to 500 mL Erlenmeyer flasks, and was inoculated with cyanobacteria of 0.2 calculated as OD680 under aseptic conditions. […]
# [2] = pH 6.4; cited from earlier work
# [3] = tested on: Microcystis aeruginosa (FACHB-905); test: Algicidal effect on toxin-producing Microcystis aeruginosa, OD680 over 5 d in light incubator; assay type: cell-based
# Experimental: (§2) Microcystis aeruginosa is cultured in a light incubator (GZX-250BS-III), provided by Shanghai CIMO Medical Instrument Co., Ltd., with a light intensity of 3000 LX, a light-dark time ratio of 12:12, and a temperature setting of 25° C. The four kinds of bacteria are all cultured in a biochemical incubator (SPX-150), provided by Shanghai Yuejin Medical Instruments Co., Ltd., with a temperature setting of 37° C.
# (§3) The concentration of Microcystis aeruginosa and other bacteria is measured with an ultraviolet spectrophotometer (Shimadzu, UV-2700), and the concentration is characterized by the optical density of liquid at 680 nm and 600 nm, and recorded as OD680 and OD600, respectively.
# (§4) 100 mL of BG-11 medium was added to a 150 mL Erlenmeyer flasks, and was inoculated with cyanobacteria of 0.2 calculated as OD680 under aseptic conditions. Different volumes of the AA stock solution were added to the Erlenmeyer flasks to make sure that the dosage of AA was 5 mg/L, 7 mg/L, 10 mg/L, 15 mg/L and 20 mg/L in different Erlenmeyer flasks. At the same time, a control experiment (Control) without AA was established. The cyanobacteria were put in a light incubator for culture. Considering the existing reports that the most suitable growth light for cyanobacteria was 2,000-4,000 LX (see “Freshwater Algae Culture Collection at the Institute of Hydrobiology”, website “http://algae.ihb.ac.cn/Products/ProductDetail.aspx?product=523”, and the literature “The effect of light on the growth and chlorophyll fluorescence of Chlorella and Microcystis aeruginosa”, Journal of Xi'an University of Arts and Science, 2019, 22, 73-77”), 3,000 LX was selected as the light intensity in the present example. At the beginning of the incubation and after 0.5 d, 1 d, 1.5 d, 2 d, 3 d, 4 d and 5 d of the incubation, samples were taken to detect the OD680 under aseptic conditions.
# Daphnia magna = conditions: cited from earlier work
# Microcystis aeruginosa [4] = test: Algicidal effect at different initial densities of Microcystis aeruginosa, OD680; assay type: cell-based; conditions: 15 mg/L; initial OD680 0.11 to 1.0 (up to 2.59×10^7 cells/mL); 5 d
# Experimental: as §1, §3
# 100 mL of BG-11 medium was added to 150 mL Erlenmeyer flasks, and was inoculated with cyanobacteria to finally obtain solutions with the OD680 of 0.11, 0.27, 0.62 and 1.0, respectively, under aseptic conditions. A certain volume of the AA stock solution was added to the Erlenmeyer flasks, so that the dosage of AA is 15 mg/L. At the same time, the control experiments (Control) without AA were established for different cyanobacteria densities. The cyanobacteria were put in a light incubator for culture. At the beginning of the incubation and after 1 d, 2 d, 3 d, 4 d, and 5 d of the incubation, samples were taken to detect the OD680 under aseptic conditions.
# Microcystis aeruginosa [5] = test: Actual photochemical quantum yield of the photosystem (Water-PAM); assay type: cell-based
# Experimental: as §1
# The actual photochemical quantum yield is measured using a Water-PAM phytoplankton analyzer (Walz), and 2.5 mL of algae culture is taken to measure Fm′ and Fs after light adaptation. The calculation formula for the actual photochemical quantum yield is as follows: ϕe=ΔF/Fm′=(Fm′−Fs)/Fm′ wherein ϕe is the actual photochemical quantum yield, and Fm′ and Fs are the maximum chlorophyll fluorescence and the stable chlorophyll fluorescence of the algae culture after light adaptation, respectively (“Effects of different algaecides on the photosynthetic capacity, cell integrity and microcystin-LR release of Microcystis aeruginosa”, Sci. Total Environ. 2013, 463, 111-119).
# 100 mL of BG-11 medium was added to 150 mL Erlenmeyer flasks, and was inoculated with cyanobacteria to an initial OD680 of 0.2 under aseptic conditions. Different volumes of the AA stock solution were added to the Erlenmeyer flasks, so that the dosage of AA was 7 mg/L, 10 mg/L and 15 mg/L, respectively. At the same time, a control experiment (Control) without AA was established. […] At the beginning of the incubation and after 0.5 d, 1 d, 1.5 d, 2 d, 3 d, 4 d, and 5 d of the incubation, samples were taken to detect the chlorophyll fluorescence parameters under aseptic conditions.
# Microcystis aeruginosa [6] = test: Growth inhibition under natural light (sunlit window sill), OD680; assay type: cell-based; conditions: under sunlight, within 5 days
# Experimental: as §1, §3
# 100 mL of BG-11 medium was added to 150 mL Erlenmeyer flasks, and was inoculated with cyanobacteria to an initial OD680 of 0.2 under aseptic conditions. A certain volume of the AA stock solution was added to the Erlenmeyer flasks, so that the dosage of AA was 10 mg/L or 20 mg/L. At the same time, a control experiment (Control) without AA was established. The cyanobacteria were placed at a sunlit window sill for incubation. At the beginning of the incubation and after 0.5 d, 1 d, 1.5 d, 2 d, 3 d, 4 d, and 5 d of the incubation, samples were taken to detect the OD680 under aseptic conditions.
# Staphylococcus aureus = test: Bacterial growth with AA, OD600 after 24 h; assay type: cell-based
# Experimental: (§5) The bacteria used in the following examples are Escherichia coli, Salmonella, Bacillus subtilis and Staphylococcus aureus, all of which are provided by the School of Life Sciences, Nanjing University. The bacteria are cultured with an LB nutrient broth. The main components of the LB nutrient broth include: tryptone 10.0 g/L, yeast extract 5.0 g/L, and sodium chloride 10.0 g/L.
# as §2, §3
# (§6) 4 mL of nutrient broth was added to 9 test tubes under aseptic conditions, and the test tubes were numbered 1 to 9. A broth stock solution containing 1,536 mg/L AA was prepared, and 4 mL of which was taken and added to the No. 9 test tube. After the solution in the No. 9 test tube was uniformly mixed, 4 mL of the mixed solution in the No. 9 test tube was taken and added to the No. 8 test tube. By analogy, dilution was performed by the stepwise dilution method to the No. 2 test tube, and after uniform mixing, 4 mL of the solution in the No. 2 test tube was taken and discarded. The No. 1 test tube without AA was taken as the blank group (Control). The final concentrations of AA in each test tube from No. 1 to No. 9 were 0 mg/L, 6 mg/L, 12 mg/L, 24 mg/L, 48 mg/L, 96 mg/L, 192 mg/L, 384 mg/L, and 768 mg/L, respectively. A suspension of the bacteria was diluted with nutrient broth to an OD600 of 0.05. 100 μL of the diluted suspension was added to each of the 9 test tubes, and the test tubes were sealed with sterilized sealing films. After completing the above operations, the bacterial solutions were put into a biochemical incubator, and the OD600 in each test tube was measured after incubation for 24 h.
# Escherichia coli = test: Bacterial growth with AA, OD600 after 24 h; assay type: cell-based; conditions: for growth rate (OD600) / effect on growth (OD600): 24 h; for effect on growth (OD600): 6-768 mg/L, vs control
# Experimental: as §5, §2, §3, §6
# Salmonella = test: Bacterial growth with AA, OD600 after 24 h; assay type: cell-based
# Experimental: as §5, §2, §3, §6
# Bacillus subtilis = test: Bacterial growth with AA, OD600 after 24 h; assay type: cell-based; conditions: for effect on growth (OD600): 6-768 mg/L, 24 h, vs control
# Experimental: as §5, §2, §3, §6
# [7] = tested on: Microcystis aeruginosa (FACHB-469); test: Algicidal effect on non-toxic Microcystis aeruginosa, OD680 over 5 d in light incubator; assay type: cell-based
# Experimental: as §2, §3, §4
# Except for the different cyanobacteria strain, other operations are the same as those in step (1).
# [8] = 25° C.; cited from earlier work
# [9] = concentration less than 738 mg/L
smiles,measurement,setting,value
"CC(=O)CC(C)=O [AA, acetylacetone]",inhibition rate on Microcystis aeruginosa (chlorophyll a),Microcystis aeruginosa [1],higher than all other algaecides
same,aquatic oxidation rate,[2],9.9e-09 M⁻¹ s⁻¹
same,effect on growth (OD680),"[3]; 5 mg/L, compared to the control group",no significant effect
same,effect on growth (OD680),[3]; 7 mg/L,"inhibited, but the growth curve of which is still increase"
same,algicidal effect on growth (OD680),"[3]; 10 mg/L, within 5 d, weaker than 15 mg/L",continued to show algicidal effect
same,growth curve (OD680),"[3]; 20 mg/L, compared with 15 mg/L AA",no significant change in the growth curve
same,optical density (OD680),"[3]; AA concentration greater than 15 mg/L, starting from day 1.5",began to decrease
same,effect on growth (OD680),"[3]; first day of addition, 5-20 mg/L",no significant effect
same,median lethal dose,Daphnia magna,higher than 50 mg/L
same,algicidal performance (OD680),Microcystis aeruginosa [4],excellent algicidal performance
same,actual photochemical quantum yield,"Microcystis aeruginosa [5]; after 1 day of incubation, 7, 10, 15 mg/L",significantly inhibited
same,actual photochemical quantum yield,"Microcystis aeruginosa [5]; second day of growth, AA of greater than 7 mg/L",0
same,effect on growth (OD680),Microcystis aeruginosa [6]; 10 mg/L,significantly inhibited
same,effect on growth (OD680),Microcystis aeruginosa [6]; 20 mg/L,significantly inhibited
same,effect on growth (OD600),"Staphylococcus aureus; 6-768 mg/L, 24 h, vs control",basically had no influence on the growth
same,effect on growth (OD600),"Staphylococcus aureus; 6-768 mg/L, 24 h, vs control, listed as acetylacetone",no inhibitory effect
same,killing of bacteria,Staphylococcus aureus; [9],will not kill
same,effect on growth (OD600),Staphylococcus aureus; concentration of up to 768 mg/L,can still promote the growth
same,growth rate (OD600),Escherichia coli; 12 mg/L,slightly lower than that of the control group
same,effect on growth (OD600),Escherichia coli,basically had no influence on the growth
same,effect on growth (OD600),Escherichia coli; listed as acetylacetone,no inhibitory effect
same,growth rate (OD600),Escherichia coli; concentration increased to 24 mg/L,increased slightly
same,killing of bacteria,Escherichia coli; [9],will not kill
same,growth rate (OD600),"Salmonella; 768 mg/L, still a growth trend within 24 h",decreased
same,growth rate (OD600),"Salmonella; 6-384 mg/L, compared with the control group",increased
same,effect on growth (OD600),"Salmonella; 6-768 mg/L, 24 h, vs control",no inhibitory effect; also recorded: basically had no influence on the growth
same,killing of bacteria,Salmonella; [9],will not kill
same,effect on growth (OD600),Bacillus subtilis,basically had no influence on the growth
same,effect on growth (OD600),Bacillus subtilis; listed as acetylacetone,no inhibitory effect
same,killing of bacteria,Bacillus subtilis; [9],will not kill
same,algicidal effect on growth (OD680),[7]; 5 mg/L,still showed algicidal effect
same,algicidal effect on growth (OD680),[7]; 7 mg/L,a certain algicidal effect
same,growth curve (OD680),"[7]; 20 mg/L, compared with 10 mg/L and 15 mg/L AA",did not change significantly
same,effect on growth (OD680),[7]; dosage greater than 10 mg/L,significantly inhibited
same,effect on growth (OD680),[7]; on day 1.5,inhibited
same,Henry's law constant,[8],2.35×10^−6 atm m^3/mol
"O=C(O)c1cc(O)c(O)c(O)c1 [gallic acid, reference compound]",inhibition rate on Microcystis aeruginosa (chlorophyll a),Microcystis aeruginosa [1],close to that of AA
